Blank lines part the entries; values can stand above or below the molecule they belong to.
Experiments:
[1] = test system: Lactobacillus johnsonii (CNCM I-1225); assay: Gastric small-intestinal model (TIM), hydrolysis of 5-CQA during simulated digestion; conditions: 6 h digestion, with addition of L. johnsonii
Experimental: The gastric small-intestinal model, TIM-1, comprises four connected compartments that represent the stomach, duodenum, jejunum and ileum, respectively. Each compartment consists of a glass outer wall with a flexible inner wall. The flexible wall is surrounded by water at 37° C. to squeeze the walls, which ensures mixing of the food with the secreted enzymes by peristaltic movements in the gastro-intestinal tract.
The experiments in the model were performed under average physiological conditions of the gastro-intestinal tract. During the experiments, the temperature was kept at 37° C. and salivary, gastric, biliary, and pancreatic secretions were simulated. The digestion process in the model was monitored for 6 h. During the first 3.5 h, the gastric content was gradually delivered into the small intestine “pyloric valve”. […]
4.5 g of NESCAFE PROTECT® (a co-extract of green and roasted coffee beans) were dissolved in 310 ml acetate buffer (20 mM, pH 6.5). […] After 6 h experiment, the residues from the compartments of the stomach, duodenum, jejunum and ileum were analysed to calculate the mass balance of chlorogenic acids. […] After 6 h, the residues from the compartments of the stomach, duodenum, jejunum and ileum were analysed by HPLC to calculate the mass balance of 5-caffeoyl quinic acid.

[2] = test system: Lactobacillus johnsonii (CNCM I-1225) fresh cells; assay: Treatment of NESCAFE PROTECT with L. johnsonii fresh cells, HPLC of chlorogenic and phenolic acids
Experimental: (§1) Cells of L. johnsonii (CNCM I-1225) were grown (7.0 E08 cfu/ml) and centrifuged (5000 g, 10 min), the pellets were resuspended in phosphate buffer (50 mM, pH 7.0) at a concentration of 0.61 g/ml. […] Samples were withdrawn at different reaction times, centrifuged (3000 g, 5 min) and filtered through 0.45 μm pore size syringe filters (Millipore SLHA 025 BS) and analysed by HPLC.
A reaction control was run in parallel under the same reaction conditions but without bacteria.
(§2) Coffee samples were diluted to 1% w/w and analyzed by RP-HPLC on a CC 250/4 Nucleosil 100-5-C18 column (Macherey-Nagel). The eluent system was Millipore water, 0.1% TFA and CH3CN at a flow rate of 1 mL/min. The method allowed the simultaneous determination of caffeoyl quinic acids (CQA), feruloyl quinic acids (FQA), di-caffeoyl quinic acids (diCQA), feruloyl quinic acid-lactones, caffeic acid (CA) and ferulic acid (FA) (absorbance at 325 nm) using external standard calibration curves. Results were expressed relative to the reference at time 0 (t0) or to the reference at the same time without bacteria.

[3] = test system: Lactobacillus johnsonii (CNCM I-1225) extract (lysed cells); assay: Treatment of NESCAFE PROTECT with L. johnsonii extract (lysed cells), HPLC; format: biochemical
Experimental: as §1, with “g/ml. The cells were then lysed using the glass-beads method. 600 μl of cells preparation were put in screw-cap tubes and 600 μl of glass-beads were added at 0° C. The tubes were then put into a Mini-Beadbeater for 1 min of intense shaking, cooled in ice, and put another 1 min in the Mini-Beadbeater.” for “g/ml.”, “min),” for “min) and”
as §2

[4] = test system: spray-dried preparation of Lactobacillus johnsonii (CNCM I-1225); assay: Treatment of NESCAFE PROTECT with spray-dried preparation of L. johnsonii, HPLC
Experimental: (§3) To this solution, 10 mg of a spray-dried preparation of Lactobacillus johnsonii (CNCM I-1225) (3.3 E9 cfu/g) were added. The mixture was then incubated at 37° C. and samples were withdrawn at different reaction times. After centrifugation (3000 g, 5 min) and filtration (0.45 μm pore size syringe filters, Millipore SLHA 025 BS) the samples were analysed by HPLC.
as §2

[5] = test system: spray-dried preparation of Lactobacillus johnsonii (CNCM I-1225); assay: Treatment of green coffee extract with spray-dried preparation of L. johnsonii, HPLC
Experimental: as §3, with “30 mg of a dried green coffee extract was dissolved in 1 ml phosphate buffer (50 mM, pH 7.0) or in 1 ml water. To” for “To”, “johnsonii” for “johnsonii (CNCM I-1225)”, “cfu/g) was” for “cfu/g) were”
as §2

[6] = test system: concentrated preparation of Lactobacillus johnsonii (CNCM I-1225); assay: Treatment of NESCAFE with concentrated preparation of L. johnsonii, HPLC
Experimental: 400 mg of NESCAFE SPECIAL FILTRE® (a dried extract of roasted coffee beans) were dissolved in 1 ml of boiling water and the solution was cooled to 37° C. at room temperature. To 250 μl of this coffee solution, different amounts of concentrated preparation of Lactobacillus johnsonii (50 μl, 100 μl, 350 μl, 750 μl) were added and the volume was adjusted to 1 ml with water. The mixtures were than incubated at 37° C. for 2 h and 4 h. After centrifugation (3000 g, 5 min) and filtration the samples were analysed by HPLC.
as §2

[7] = test system: Lactobacillus johnsonii (CNCM I-1225); assay: Treatment of coffee extracts with bacteria cells (L. johnsonii), HPLC
Experimental: as §2
(§4) Tested strains were harvested (centrifugation at 5000 g for 10 min) after having well reached stationary phase, corresponding to 16 hours of incubation in culture medium at 37° C. in anaerobic atmosphere without agitation. For a first activation of the strains, frozen stock cultures were inoculated in fresh media and grown overnight. This pre-culture was used to inoculate the culture.
(§5) After culture of bacteria and centrifugation, the pellets were resuspended in phosphate buffer (pH 7.0) at a concentration of 0.61 g/ml. To 200 μl of this cells preparation, 800 μl of a coffee solution (3%) was added and the mixture was incubated at 37° C. for 4 h, 16 h and 24 h.

[8] = test system: Bifidobacterium lactis BB12 (CNCM I-3446); assay: Treatment of coffee extracts with bacteria cells (B. lactis), HPLC
Experimental: as §2, §4, §5

Chlorogenate esterase = assay: Incubation of coffee extracts with chlorogenate esterase, HPLC; format: biochemical, Aspergillus japonicus
Experimental: as §2
Chlorogenate esterase (24 U/g), derived from Aspergillus japonicus (Kikkoman, Japan). Tannase from Aspergillus oryzae (Kikkoman, Japan) Preparation of Bacteria Cells
A solution of chlorogenate esterase (25 mg) in 200 μl phosphate buffer (pH 7.0) was added to 800 μl of a coffee solution (3%). The mixture was then incubated at 37° C. for 4 h, 16 h and 24 h. After reaction time, the enzymatic activity was stopped by heat treatment (3 min, 90° C.) and the mixture was filtered before analysis.

% hydrolysis of 5-CQA (% hydrolysed of total 5-CQA present in the samples) [1]: 48%
Compound: O=C(/C=C/c1ccc(O)c(O)c1)O[C@@H]1C[C@@](O)(C(=O)O)C[C@@H](O)[C@@H]1O [5-CQA, 5-caffeoyl quinic acid]

% relative to untreated control at t = 0 (Chlorogenate esterase; NESCAFE PROTECT + Chlorogenate esterase, 4 h): 10879% | % relative to untreated control at t = 0 (Chlorogenate esterase; NESCAFE PROTECT + Chlorogenate esterase, 16 h): 10198% | % relative to untreated control at t = 0 (Chlorogenate esterase; NESCAFE PROTECT + Chlorogenate esterase, 24 h): 10750% | % relative to untreated control at t = 0 (Chlorogenate esterase; green coffee extract + Chlorogenate esterase, 4 h): 18917% | % relative to untreated control at t = 0 (Chlorogenate esterase; green coffee extract + Chlorogenate esterase, 16 h): 17275% | % relative to untreated control at t = 0 (Chlorogenate esterase; green coffee extract + Chlorogenate esterase, 24 h): 18318%
Compound: O=C(O)/C=C/c1ccc(O)c(O)c1 [CA, caffeic acid]
Concentration in % relative to untreated reference at t = 0 ([2]; 6 h, cell preparation 100 uL): 10111% | Concentration in % relative to untreated reference at t = 0 ([2]; 6 h, cell preparation 350 uL): 14282% | Concentration in % relative to untreated reference at t = 0 ([2]; 6 h, cell preparation 750 uL): 13215% | Concentration in % relative to untreated reference at t = 0 ([2]; 24 h, cell preparation 100 uL): 13661% | Concentration in % relative to untreated reference at t = 0 ([2]; 24 h, cell preparation 350 uL): 15981% | Concentration in % relative to untreated reference at t = 0 ([2]; 24 h, cell preparation 750 uL): 13238% | Concentration in % relative to untreated reference at t = 0 ([3]; 2 h, cell preparation 100.0 uL): 10729% | Concentration in % relative to untreated reference at t = 0 ([3]; 2 h, cell preparation 350.0 uL): 13901% | Concentration in % relative to untreated reference at t = 0 ([3]; 6 h, cell preparation 100.0 uL): 12581% | Concentration in % relative to untreated reference at t = 0 ([3]; 6 h, cell preparation 350.0 uL): 16300% | % relative to untreated control at t = 0 ([4]; 2 h): 3598% | % relative to untreated control at t = 0 ([4]; 6 h): 6140% | % relative to untreated control at t = 0 ([4]; 24 h): 7879% | % relative to untreated control at t = 0 ([5]; 4 h): 2673% | % relative to untreated control at t = 0 ([5]; 6 h): 3762% | % relative to untreated control at t = 0 ([5]; 16 h): 5182% | % relative to untreated control at t = 0 ([5]; 24 h): 6145% | % relative to untreated control at t = 0 ([6]; cell amount 50 μL/1 mL, 2 h): 1737% | % relative to untreated control at t = 0 ([6]; cell amount 50 μL/1 mL, 4 h): 1763% | % relative to untreated control at t = 0 ([6]; cell amount 100 μL/1 mL, 2 h): 2885% | % relative to untreated control at t = 0 ([6]; cell amount 100 μL/1 mL, 4 h): 2803% | % relative to untreated control at t = 0 ([6]; cell amount 350 μL/1 mL, 2 h): 5752% | % relative to untreated control at t = 0 ([6]; cell amount 350 μL/1 mL, 4 h): 4491% | % relative to untreated control at t = 0 ([6]; cell amount 750 μL/1 mL, 2 h): 7292% | % relative to untreated control at t = 0 ([6]; cell amount 750 μL/1 mL, 4 h): 5514% | % relative to untreated control at t = 0 ([7]; NESCAFE PROTECT + Lactobacillus johnsonii, 4 h): 7942% | % relative to untreated control at t = 0 ([7]; NESCAFE PROTECT + Lactobacillus johnsonii, 16 h): 9429% | % relative to untreated control at t = 0 ([7]; NESCAFE PROTECT + Lactobacillus johnsonii, 24 h): 9933% | % relative to untreated control at t = 0 ([7]; green coffee extract + Lactobacillus johnsonii, 4 h): 12505% | % relative to untreated control at t = 0 ([7]; green coffee extract + Lactobacillus johnsonii, 16 h): 17148% | % relative to untreated control at t = 0 ([7]; green coffee extract + Lactobacillus johnsonii, 24 h): 18107% | % relative to untreated control at t = 0 ([8]; NESCAFE PROTECT + Bifidobacterium lactis, 4 h): 968% | % relative to untreated control at t = 0 ([8]; NESCAFE PROTECT + Bifidobacterium lactis, 16 h): 2258% | % relative to untreated control at t = 0 ([8]; NESCAFE PROTECT + Bifidobacterium lactis, 24 h): 2840% | % relative to untreated control at t = 0 ([8]; green coffee extract + Bifidobacterium lactis, 4 h): 1521% | % relative to untreated control at t = 0 ([8]; green coffee extract + Bifidobacterium lactis, 16 h): 4182% | % relative to untreated control at t = 0 ([8]; green coffee extract + Bifidobacterium lactis, 24 h): 5283%
